Experimental data from article PMC8142146 (Bioorganic chemistry, 2020).

What was measured:
Assay in all cases: PARP-isoform screening, Chemiluminescent Activity Assay Kit
Assay type in all cases: biochemical
PARP14 = PARP14 (Homo sapiens, UniProt Q460N5); conditions: Figure 5
PARP2 = PARP2 (Homo sapiens, UniProt Q9UGN5); conditions: at 0.5 μM concentration
PARP3 = biological target: T1, PARP3 (Homo sapiens, UniProt Q9Y6F1); conditions: Figure 5
T1 sequence (Q9Y6F1 1-533): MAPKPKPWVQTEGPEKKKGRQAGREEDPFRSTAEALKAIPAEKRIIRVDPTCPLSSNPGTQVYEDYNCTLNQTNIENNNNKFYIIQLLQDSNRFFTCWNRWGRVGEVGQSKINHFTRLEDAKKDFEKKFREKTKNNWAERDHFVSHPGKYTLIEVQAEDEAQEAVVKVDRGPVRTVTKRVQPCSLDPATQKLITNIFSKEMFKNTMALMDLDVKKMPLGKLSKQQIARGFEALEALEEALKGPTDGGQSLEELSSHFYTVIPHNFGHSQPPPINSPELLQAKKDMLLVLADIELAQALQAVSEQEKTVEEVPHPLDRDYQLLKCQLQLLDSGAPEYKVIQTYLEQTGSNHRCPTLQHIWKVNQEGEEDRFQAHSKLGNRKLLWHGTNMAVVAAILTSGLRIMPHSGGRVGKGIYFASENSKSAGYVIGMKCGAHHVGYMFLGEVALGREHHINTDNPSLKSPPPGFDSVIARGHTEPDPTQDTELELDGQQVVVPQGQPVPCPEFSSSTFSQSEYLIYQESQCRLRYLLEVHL

PARP10 = biological target: T2, PARP10 (Homo sapiens, UniProt Q53GL7); conditions: Figure 5
T2 sequence (Q53GL7 1-1025): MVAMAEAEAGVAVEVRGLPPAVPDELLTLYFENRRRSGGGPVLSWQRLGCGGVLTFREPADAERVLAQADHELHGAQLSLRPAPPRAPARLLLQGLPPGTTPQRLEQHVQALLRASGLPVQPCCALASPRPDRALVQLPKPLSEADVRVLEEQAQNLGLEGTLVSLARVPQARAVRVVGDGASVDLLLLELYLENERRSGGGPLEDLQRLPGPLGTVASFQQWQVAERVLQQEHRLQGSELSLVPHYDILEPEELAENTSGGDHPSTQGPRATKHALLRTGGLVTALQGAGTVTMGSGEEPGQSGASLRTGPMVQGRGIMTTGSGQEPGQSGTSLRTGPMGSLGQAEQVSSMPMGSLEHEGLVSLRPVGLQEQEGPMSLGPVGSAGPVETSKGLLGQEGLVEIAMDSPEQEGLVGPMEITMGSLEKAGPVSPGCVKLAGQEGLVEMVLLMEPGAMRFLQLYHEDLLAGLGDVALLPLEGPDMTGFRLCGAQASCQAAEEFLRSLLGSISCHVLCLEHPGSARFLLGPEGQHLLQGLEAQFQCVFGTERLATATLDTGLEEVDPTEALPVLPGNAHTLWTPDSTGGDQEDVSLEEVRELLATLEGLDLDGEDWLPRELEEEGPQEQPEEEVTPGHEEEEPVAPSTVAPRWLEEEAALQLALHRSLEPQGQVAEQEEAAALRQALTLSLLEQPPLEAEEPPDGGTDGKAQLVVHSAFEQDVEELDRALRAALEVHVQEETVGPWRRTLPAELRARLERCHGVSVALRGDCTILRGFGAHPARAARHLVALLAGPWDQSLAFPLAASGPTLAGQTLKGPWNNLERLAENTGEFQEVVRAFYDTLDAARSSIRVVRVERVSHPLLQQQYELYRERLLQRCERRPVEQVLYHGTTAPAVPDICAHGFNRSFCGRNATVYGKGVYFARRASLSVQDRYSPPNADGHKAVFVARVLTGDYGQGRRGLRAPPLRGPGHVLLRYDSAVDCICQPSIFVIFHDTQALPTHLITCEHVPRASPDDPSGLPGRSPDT

TNKS1 (PARP5A) = biological target: T3, TNKS1 (PARP5A) (Homo sapiens, UniProt O95271); conditions: Figure 5
T3 sequence (O95271 1-1327): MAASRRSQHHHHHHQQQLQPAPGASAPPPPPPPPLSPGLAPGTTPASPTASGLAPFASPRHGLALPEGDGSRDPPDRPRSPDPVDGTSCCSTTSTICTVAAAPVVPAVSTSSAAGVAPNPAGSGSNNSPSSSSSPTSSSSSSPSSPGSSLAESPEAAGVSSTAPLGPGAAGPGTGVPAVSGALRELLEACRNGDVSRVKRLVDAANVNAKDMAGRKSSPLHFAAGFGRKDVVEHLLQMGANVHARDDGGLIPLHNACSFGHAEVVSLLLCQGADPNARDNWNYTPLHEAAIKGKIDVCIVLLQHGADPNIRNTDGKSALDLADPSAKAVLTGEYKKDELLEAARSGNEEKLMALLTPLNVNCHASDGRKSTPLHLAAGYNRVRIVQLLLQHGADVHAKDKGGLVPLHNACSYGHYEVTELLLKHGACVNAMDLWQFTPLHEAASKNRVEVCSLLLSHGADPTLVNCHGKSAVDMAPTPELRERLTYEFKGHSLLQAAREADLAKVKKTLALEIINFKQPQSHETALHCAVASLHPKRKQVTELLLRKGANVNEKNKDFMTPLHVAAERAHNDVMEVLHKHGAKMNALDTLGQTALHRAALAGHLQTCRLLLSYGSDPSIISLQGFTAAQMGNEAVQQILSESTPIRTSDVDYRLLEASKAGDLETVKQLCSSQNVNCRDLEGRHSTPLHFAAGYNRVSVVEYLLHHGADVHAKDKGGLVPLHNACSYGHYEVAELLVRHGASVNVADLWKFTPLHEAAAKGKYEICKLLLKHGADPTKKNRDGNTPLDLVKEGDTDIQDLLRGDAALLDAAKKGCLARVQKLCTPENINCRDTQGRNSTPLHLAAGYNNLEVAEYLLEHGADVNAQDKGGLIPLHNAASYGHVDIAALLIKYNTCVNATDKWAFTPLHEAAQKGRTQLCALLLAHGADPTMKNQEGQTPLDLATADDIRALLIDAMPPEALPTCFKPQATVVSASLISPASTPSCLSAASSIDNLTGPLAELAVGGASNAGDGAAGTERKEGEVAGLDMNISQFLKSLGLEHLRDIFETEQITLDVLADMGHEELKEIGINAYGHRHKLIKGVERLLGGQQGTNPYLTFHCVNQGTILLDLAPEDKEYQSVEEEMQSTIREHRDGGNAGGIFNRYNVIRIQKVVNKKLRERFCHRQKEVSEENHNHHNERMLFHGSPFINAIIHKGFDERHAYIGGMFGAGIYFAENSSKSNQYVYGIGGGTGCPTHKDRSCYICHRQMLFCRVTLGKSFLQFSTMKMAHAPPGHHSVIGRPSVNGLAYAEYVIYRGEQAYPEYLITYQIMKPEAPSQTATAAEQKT

Sequence of PARP2 (Q9UGN5 whole entry): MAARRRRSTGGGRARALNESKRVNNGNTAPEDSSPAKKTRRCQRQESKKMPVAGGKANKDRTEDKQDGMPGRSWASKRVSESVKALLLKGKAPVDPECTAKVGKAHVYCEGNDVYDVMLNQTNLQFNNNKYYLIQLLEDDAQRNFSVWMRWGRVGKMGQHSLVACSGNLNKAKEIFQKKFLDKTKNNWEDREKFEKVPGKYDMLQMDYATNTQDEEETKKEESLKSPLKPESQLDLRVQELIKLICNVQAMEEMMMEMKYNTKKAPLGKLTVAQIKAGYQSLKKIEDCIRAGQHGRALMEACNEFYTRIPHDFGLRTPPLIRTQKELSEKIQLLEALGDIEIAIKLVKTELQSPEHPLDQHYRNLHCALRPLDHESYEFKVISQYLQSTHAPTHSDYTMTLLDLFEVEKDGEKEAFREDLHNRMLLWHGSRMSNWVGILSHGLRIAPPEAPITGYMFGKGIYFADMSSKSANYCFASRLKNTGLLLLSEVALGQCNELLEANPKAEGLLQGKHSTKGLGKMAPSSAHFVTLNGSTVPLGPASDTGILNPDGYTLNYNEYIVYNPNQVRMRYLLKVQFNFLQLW
Sequence of PARP14 (Q460N5 whole entry): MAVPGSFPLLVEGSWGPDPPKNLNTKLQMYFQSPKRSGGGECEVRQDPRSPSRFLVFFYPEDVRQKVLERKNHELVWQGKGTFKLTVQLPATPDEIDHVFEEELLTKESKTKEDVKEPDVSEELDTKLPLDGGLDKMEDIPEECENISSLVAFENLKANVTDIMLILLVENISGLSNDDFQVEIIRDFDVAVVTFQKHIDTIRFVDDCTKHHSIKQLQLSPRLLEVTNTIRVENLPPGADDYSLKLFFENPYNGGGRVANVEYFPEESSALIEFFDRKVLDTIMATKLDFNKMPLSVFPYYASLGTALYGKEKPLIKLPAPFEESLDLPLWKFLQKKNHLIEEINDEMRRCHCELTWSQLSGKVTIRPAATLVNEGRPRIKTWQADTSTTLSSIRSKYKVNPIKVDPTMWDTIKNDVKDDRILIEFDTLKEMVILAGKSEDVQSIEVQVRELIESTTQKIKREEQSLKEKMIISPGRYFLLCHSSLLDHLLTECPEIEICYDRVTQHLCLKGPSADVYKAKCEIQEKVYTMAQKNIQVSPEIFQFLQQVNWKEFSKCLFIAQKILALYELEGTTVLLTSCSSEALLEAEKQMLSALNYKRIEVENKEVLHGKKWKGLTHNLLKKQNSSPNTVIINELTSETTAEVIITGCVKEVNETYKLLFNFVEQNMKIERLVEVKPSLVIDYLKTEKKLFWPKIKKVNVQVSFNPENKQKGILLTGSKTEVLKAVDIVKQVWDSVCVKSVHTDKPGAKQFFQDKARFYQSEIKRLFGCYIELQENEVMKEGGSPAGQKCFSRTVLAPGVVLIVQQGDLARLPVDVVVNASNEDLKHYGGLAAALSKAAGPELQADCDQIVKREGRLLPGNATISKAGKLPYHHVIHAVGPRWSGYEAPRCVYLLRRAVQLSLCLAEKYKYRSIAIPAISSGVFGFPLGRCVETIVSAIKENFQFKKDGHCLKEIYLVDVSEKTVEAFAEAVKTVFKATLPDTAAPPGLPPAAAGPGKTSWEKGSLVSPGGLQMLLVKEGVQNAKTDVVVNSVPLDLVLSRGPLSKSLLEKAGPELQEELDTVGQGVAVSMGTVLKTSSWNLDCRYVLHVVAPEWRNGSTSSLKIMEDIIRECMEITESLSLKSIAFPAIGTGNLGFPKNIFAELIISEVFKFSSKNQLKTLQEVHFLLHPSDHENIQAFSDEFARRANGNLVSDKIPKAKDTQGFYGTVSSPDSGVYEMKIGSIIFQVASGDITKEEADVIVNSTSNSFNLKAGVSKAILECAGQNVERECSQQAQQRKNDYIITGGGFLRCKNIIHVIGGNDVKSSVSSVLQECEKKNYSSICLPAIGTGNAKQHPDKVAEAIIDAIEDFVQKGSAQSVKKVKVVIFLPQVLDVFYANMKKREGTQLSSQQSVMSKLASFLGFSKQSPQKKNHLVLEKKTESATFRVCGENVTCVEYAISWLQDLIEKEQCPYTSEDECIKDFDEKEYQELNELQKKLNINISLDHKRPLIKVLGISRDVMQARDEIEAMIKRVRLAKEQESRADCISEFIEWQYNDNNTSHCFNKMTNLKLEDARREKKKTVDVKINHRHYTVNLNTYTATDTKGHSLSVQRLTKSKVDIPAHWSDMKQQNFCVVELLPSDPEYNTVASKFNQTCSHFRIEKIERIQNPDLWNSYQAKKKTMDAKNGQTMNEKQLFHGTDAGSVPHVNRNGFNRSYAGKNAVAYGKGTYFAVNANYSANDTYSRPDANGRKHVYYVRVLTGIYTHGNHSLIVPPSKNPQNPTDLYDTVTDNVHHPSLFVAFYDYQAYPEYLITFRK

- PARP14 inhibition (PARP14): did not interfere
- PARP2 inhibition (PARP2): complete inhibition
- PARP3 inhibition (PARP3): substantially inhibited
- PARP10 inhibition (PARP10): did not interfere
- TNKS1 inhibition (TNKS1 (PARP5A)): substantially inhibited
SMILES: NC(=O)c1cccc2c1O/C(=C\c1ccc(O)cc1)C(=O)N2 [Compound 49, (Z)-2-(4-Hydroxybenzylidene)-3-oxo-3,4-dihydro-2H-benzo[b][1,4]oxazine-8-carboxamide]
